The test system of assay [1] is contact hypersensitivity to oxazolone. Kind of assay: Inhibitory effect on contact hypersensitivity to oxazolone in mice. The format is in vivo, mouse (male ICR). Particulars: topical, 24 hours after challenge. As to the method:
(3) Inhibitory effect on contact hypersensitivity to oxazolone in mice:
This test was carried out by the method of Evans et al. [cf. Brit.
Male ICR mice (18-20 g) were used. The abdominal region of the mice was carefully clipped with an electric clipper, and 0.1 ml of a 0.5 w/v % oxazolone solution in absolute ethanol was gently rubbed into the clipped area. Five days after the sensitization 20 μl of a 0.5 w/v % oxazolone solution in acetone or chloroform, or the solution containing test compound was applied to both sides of the right ear. The left ear was not treated. Twenty-four hours after the challenge, the animals were sacrificed with diethyl ether. The circular parts (5.5 mm in diameter) of both ears were removed by punching and then weighed. The inhibitory rate was determined by comparing the ear swelling of the mice treated with oxazolone containing test compound with that of the mice treated with oxazolone. Each group of 8 mice was used for each dose of the test compound.

Assay [2] concerns histamine-induced contraction of isolated guinea pig trachea. Kind of assay: Inhibitory effect on histamine-induced contraction of isolated guinea pig trachea. On the set-up: species or system guinea pig (male Hartley). As to the method:
(2) Inhibitory effect on histamine-induced contraction of isolated guinea pig trachea:
Male Hartley guinea pigs (400-700 g) were used. Zig-zag strips of guinea pig trachea were prepared by the method of Emmerson and Mackay [cf. J. Pharm. […] Dose-response curves for histamine were obtained before and 5 minutes after the addition of test compounds. Inhibitory rate was calculated from contraction heights in 3×10^-5 M of histamine without vs. with test compound.

Another assay deals with T1, 5-lipoxygenase (Cavia porcellus, UniProt A0A286X958).
T1 construct: The cytosol fraction of peritoneal exudate cells from male Hartley guinea pigs (400-700 g) was used as 5-lipoxygenase; from tissue; host or cells: cytosol fraction of peritoneal exudate cells (leukocytes) of male Hartley guinea pigs
T1 sequence (A0A286X958 1-674): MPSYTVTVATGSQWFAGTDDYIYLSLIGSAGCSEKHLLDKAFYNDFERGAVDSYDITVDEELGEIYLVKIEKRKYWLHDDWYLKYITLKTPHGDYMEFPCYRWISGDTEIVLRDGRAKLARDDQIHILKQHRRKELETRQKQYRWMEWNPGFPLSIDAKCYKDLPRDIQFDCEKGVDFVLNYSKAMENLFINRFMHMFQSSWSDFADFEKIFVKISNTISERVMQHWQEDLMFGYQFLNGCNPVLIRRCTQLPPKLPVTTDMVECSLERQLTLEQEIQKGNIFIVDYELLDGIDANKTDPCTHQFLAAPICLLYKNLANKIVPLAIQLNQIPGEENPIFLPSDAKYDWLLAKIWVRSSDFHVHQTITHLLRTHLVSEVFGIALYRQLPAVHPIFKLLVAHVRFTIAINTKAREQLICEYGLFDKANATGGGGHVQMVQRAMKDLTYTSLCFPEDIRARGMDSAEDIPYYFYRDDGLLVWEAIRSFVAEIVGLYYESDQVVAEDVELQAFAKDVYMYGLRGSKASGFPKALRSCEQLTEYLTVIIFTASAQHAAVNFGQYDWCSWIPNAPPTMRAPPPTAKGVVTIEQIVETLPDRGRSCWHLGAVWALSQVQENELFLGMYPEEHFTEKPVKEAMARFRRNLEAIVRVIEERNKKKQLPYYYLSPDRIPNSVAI
Nature of the assay: Inhibitory effect on 5-lipoxygenase activity in guinea pig leukocytes. The format is biochemical, guinea pig (male Hartley). Particulars: read-out: 5-Lipoxygenase inhibit. activity, Inhibition. How it is done: (1) Inhibitory effect on 5-lipoxygenase activity in guinea pig leukocytes:
This test was carried out by the method of Miyamoto and Obata (cf. "Perspectives in Prostaglandin Research," ed. by Y. Shiokawa et al., Excepta Medica, Amsterdam-Oxford-Princeton, 1983, p78) with minor modifications.
The cytosol fraction of peritoneal exudate cells from male Hartley guinea pigs (400-700 g) was used as 5-lipoxygenase. The standard reaction mixture contained 50 mM potassium phosphate buffer, 1 mM CaCl2, 1 mM glutathione, 1 mM adenosine triphosphoric acid, 10 μM indomethacin and the enzyme. The mixture was incubated for 5 minutes at 30° C. after addition of [1-^14 C]arachidonic acid (0.02 μCi). The reaction was terminated by addition of 0.6 ml of the cold organic solvents (diethyl ether/methanol/0.2M citric acid=30/4/1). The organic layer (300 μl) was applied onto a precoated silica gel 60F254 glass plate (E. Merck, West Germany). Radioactivity on the plate was monitored by a radiochromatogram scanner (Packard, U.S.A.). 5-Lipoxygenase activity was calculated according to the following equation. [formula]
The effects of the test compounds were expressed in terms of percent inhibition.

SMILES strings stand for the structures.

Regarding `Cc1ccc(C=CC(=O)NCCCCN2CCN(C(c3ccccc3)c3ccccc3)CC2)cn1` [Example 2, N-[3-(6-methyl-3-pyridyl)acryloyl]-4-(4-diphenylmethyl-1-piperazinyl)butylamine], the “% Inhibition of ear swelling” value is 40.8% in assay [1] (0.3 mg/ear) and 90.0% in assay [1] (1.0 mg/ear). In assay [2] (3×10^-5 M histamine, isolated guinea pig trachea, read-out: Anti-hist. activity IC50), the IC50 was 1.1 µM. Also, the “antihistamine activity (in words)” value in assay [2] (compared with ketotifen fumarate) was “potent antihistamine activity, though fairly inferior to that of ketotifen fumarate”. Moreover, the inhibition at 30 µM on 5-lipoxygenase (3 × 10^-5 M) came out at 87.2%. Further, the inhibition at 10 µM at 5-lipoxygenase (10^-5 M) is 45.7%.

The IC50 is the concentration that inhibits the measured activity by half. Usually inhibition stands for the relative decrease from the control value, in per cent.

The values are drawn from US4778796A, “ω-(3-pyridyl)alkenamide derivatives and anti-allergenic pharmaceutical compositions containing same” (Dainippon Pharmaceutical Co., Ltd., priority 1985, dated 1988).
